Assay in all cases: Ambit kinase profiling, competition binding
The target of experiment [1] is T1, JAK1 (JH2 domain-pseudokinase) (Homo sapiens, UniProt P23458).
T1 construct: JAK1 (JH2 domain-pseudokinase); purchased Ambit Biosciences (KINOMEscan)
Conditions: for % Competition: JAK1 (JH2 domain-pseudokinase), 10 µM. The procedure:
(§1) Also included in the kinase profile are four isoforms of PKC (δ, ε, η, θ) and eight isoforms of CAMKs (CAMKIα, δ, γ; CAMKIIα, β, δ, γ; CAMK4).
(§2) The global kinase profiling experiment was performed by Ambit Biosciences.

For another experiment, the target named is T2, EGFR(G719S) (Homo sapiens, UniProt P00533, G719S).
T2 construct: purchased Ambit Biosciences (KINOMEscan)
Conditions: for % Competition: 10 µM. The procedure: as §1, §2

The target in a further experiment is T3, PRKD1 (Homo sapiens, UniProt Q15139).
T3 construct: purchased Ambit Biosciences (KINOMEscan)
T3 sequence (Q15139 1-912): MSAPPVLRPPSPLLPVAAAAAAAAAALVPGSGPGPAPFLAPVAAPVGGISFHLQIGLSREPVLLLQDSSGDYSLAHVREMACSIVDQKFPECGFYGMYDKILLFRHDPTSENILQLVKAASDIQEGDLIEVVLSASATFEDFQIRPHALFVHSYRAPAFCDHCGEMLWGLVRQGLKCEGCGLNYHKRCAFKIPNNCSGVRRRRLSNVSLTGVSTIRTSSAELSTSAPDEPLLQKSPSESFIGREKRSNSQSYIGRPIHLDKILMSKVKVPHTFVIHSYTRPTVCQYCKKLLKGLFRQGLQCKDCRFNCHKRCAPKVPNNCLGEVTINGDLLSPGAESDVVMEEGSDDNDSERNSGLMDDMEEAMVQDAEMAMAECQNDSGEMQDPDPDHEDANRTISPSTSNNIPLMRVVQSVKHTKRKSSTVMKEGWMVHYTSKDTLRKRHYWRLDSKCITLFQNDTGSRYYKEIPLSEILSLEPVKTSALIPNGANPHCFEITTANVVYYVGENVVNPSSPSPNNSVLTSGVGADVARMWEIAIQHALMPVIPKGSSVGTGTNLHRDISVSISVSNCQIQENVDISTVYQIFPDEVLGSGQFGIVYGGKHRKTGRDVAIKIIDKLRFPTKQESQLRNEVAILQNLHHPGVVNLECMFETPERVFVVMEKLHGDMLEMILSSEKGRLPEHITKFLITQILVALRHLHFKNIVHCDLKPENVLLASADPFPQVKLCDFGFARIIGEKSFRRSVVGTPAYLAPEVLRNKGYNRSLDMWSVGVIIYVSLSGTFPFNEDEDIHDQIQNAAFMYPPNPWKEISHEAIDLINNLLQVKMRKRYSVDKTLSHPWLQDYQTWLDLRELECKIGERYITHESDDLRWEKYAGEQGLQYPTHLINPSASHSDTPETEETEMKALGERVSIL
As to the method: as §1, §2

A further experiment deals with T4, PRKD3 (Homo sapiens, UniProt O94806).
T4 construct: purchased Ambit Biosciences (KINOMEscan)
T4 sequence (O94806 1-890): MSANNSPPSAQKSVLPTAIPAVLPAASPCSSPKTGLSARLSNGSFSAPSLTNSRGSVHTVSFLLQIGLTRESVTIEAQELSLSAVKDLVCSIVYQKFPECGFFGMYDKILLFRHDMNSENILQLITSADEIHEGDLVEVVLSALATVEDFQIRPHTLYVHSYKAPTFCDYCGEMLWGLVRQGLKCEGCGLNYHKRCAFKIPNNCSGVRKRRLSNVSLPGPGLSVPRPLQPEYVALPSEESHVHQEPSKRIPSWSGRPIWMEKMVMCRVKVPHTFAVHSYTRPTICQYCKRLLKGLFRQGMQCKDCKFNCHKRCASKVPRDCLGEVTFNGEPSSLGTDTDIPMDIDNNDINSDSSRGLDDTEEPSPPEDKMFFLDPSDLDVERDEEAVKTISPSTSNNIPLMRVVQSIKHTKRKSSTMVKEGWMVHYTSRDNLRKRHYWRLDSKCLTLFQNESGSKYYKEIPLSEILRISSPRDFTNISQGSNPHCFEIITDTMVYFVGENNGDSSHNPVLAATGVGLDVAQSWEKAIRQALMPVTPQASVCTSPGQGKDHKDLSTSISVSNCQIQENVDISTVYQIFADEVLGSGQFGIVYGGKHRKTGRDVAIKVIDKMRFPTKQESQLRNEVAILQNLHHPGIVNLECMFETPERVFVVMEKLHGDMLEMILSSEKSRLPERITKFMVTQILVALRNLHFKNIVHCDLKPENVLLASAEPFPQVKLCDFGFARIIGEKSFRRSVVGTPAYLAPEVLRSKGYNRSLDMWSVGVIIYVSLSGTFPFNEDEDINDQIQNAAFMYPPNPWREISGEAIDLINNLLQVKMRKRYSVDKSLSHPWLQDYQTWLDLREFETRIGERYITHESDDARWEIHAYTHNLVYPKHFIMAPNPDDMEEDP
As to the method:
as §1, §2

In a further experiment the target is T5, CSNK1E (Homo sapiens, UniProt P49674).
T5 construct: purchased Ambit Biosciences (KINOMEscan)
T5 sequence (P49674 whole entry): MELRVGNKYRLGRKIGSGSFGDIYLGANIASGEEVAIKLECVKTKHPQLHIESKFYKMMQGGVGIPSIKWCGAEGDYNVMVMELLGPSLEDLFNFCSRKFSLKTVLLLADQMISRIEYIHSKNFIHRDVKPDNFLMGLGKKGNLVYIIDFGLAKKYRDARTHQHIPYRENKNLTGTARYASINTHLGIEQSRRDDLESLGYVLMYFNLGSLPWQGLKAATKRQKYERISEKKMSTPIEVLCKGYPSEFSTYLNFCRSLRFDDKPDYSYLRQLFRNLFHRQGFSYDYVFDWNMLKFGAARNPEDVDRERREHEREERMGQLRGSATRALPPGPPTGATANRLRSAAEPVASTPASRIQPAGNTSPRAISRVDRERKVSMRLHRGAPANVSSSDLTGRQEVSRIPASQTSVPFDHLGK
The procedure:
as §1, §2

For another experiment, the target named is T6, MAP4K4 (Homo sapiens, UniProt O95819).
T6 construct: purchased Ambit Biosciences (KINOMEscan)
T6 sequence (O95819 whole entry): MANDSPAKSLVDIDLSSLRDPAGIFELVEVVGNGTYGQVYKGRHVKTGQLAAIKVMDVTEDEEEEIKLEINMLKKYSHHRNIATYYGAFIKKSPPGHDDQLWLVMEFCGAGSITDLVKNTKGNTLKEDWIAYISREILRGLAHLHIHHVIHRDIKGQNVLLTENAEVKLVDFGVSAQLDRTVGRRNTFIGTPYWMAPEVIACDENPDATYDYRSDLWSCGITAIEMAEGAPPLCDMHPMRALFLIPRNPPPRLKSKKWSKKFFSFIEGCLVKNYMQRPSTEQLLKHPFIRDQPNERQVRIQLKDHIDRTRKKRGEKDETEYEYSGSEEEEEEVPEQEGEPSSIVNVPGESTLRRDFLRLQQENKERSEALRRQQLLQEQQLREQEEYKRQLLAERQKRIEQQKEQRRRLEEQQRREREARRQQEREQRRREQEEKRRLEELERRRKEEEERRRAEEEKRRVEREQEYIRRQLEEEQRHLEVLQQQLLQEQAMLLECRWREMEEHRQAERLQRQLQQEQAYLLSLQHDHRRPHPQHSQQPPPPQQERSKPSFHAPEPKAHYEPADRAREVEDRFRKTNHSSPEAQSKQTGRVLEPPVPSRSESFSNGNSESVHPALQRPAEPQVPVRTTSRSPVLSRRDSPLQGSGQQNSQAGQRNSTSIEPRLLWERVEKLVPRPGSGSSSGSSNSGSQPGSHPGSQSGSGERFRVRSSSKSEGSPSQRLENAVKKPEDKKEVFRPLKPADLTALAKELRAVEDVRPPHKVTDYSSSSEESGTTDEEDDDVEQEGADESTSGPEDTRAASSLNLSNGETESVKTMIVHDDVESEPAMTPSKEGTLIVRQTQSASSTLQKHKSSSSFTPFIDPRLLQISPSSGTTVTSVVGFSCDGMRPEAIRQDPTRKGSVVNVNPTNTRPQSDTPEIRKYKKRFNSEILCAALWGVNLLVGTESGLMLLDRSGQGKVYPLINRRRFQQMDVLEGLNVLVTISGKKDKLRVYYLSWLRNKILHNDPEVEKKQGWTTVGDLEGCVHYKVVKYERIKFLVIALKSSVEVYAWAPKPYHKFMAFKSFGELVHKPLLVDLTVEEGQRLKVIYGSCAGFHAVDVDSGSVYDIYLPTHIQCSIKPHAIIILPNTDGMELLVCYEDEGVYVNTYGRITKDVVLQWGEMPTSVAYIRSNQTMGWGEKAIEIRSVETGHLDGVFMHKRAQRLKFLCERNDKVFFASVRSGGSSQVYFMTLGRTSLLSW
As to the method:
as §1, §2

For the next experiment, the target named is T7, PAK7 (Homo sapiens, UniProt Q9P286).
T7 construct: purchased Ambit Biosciences (KINOMEscan)
T7 sequence (Q9P286 whole entry): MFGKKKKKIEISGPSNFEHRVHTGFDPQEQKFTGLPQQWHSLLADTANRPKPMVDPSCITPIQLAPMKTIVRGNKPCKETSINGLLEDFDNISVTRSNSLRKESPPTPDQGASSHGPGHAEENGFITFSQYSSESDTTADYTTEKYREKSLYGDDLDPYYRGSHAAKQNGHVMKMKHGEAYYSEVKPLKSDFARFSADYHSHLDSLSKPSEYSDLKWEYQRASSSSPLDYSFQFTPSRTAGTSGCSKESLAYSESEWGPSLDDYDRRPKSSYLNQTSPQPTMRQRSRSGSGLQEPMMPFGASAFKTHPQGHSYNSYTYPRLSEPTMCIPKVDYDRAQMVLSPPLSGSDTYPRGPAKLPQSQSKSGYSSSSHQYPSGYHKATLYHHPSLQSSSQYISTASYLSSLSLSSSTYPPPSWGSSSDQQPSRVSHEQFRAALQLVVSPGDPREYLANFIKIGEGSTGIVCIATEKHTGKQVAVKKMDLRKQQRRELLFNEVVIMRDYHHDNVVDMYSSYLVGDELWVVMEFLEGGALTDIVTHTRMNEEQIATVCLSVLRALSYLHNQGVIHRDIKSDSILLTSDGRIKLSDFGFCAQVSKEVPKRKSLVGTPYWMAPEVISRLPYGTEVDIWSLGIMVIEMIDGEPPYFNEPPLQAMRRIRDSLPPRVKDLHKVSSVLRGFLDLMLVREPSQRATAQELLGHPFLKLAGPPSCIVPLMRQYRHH
The procedure:
as §1, §2

Read-outs that look alike come from different tables or passages of the source. Bounds are passed on as bounds.

T1 sequence (P23458 583-855 limits assumed): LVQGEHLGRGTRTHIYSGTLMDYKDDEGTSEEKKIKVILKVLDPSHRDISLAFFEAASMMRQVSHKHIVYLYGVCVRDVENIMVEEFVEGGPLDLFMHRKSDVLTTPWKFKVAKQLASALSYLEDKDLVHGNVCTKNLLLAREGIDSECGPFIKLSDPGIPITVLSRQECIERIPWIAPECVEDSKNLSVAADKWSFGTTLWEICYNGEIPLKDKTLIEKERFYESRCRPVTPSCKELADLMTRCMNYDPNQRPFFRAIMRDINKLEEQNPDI

As to `Fc1ccc(-c2c(-c3ccncc3)[nH]c3nccnc23)cc1` [Compound 122], the figures for the “% Competition” value (in experiment [1]; on EGFR(G719S)) were 99% and 96%, respectively. The inhibition at 10 µM stood at 92% at PRKD1 (PRKD1 (PKD1), 10 µM, read-out: % Competition); 98% on PRKD3 (PRKD3 (PKD3), 10 µM, read-out: % Competition); 100% on CSNK1E (CSNK1E, 10 µM, read-out: % Competition); 84% at MAP4K4 (MAP4K4, 10 µM, read-out: % Competition); 86% at PAK7 (PAK7, 10 µM, read-out: % Competition).
Turning to `CC(O)CNc1cc(-c2[nH]c3cccnc3c2-c2ccc(F)cc2)ccn1` (stereo not drawn) [Compound 140], the “% Competition” value in experiment [1] was determined as 90%; at EGFR(G719S), 70%. Further, the inhibition at 10 µM was 83% on PRKD1 (read-out: % Competition); 96% at PRKD3 (read-out: % Competition); 99 to 100% on CSNK1E (read-out: % Competition, CSNK1E, 10 µM); below 50% on MAP4K4 (read-out: % Competition); below 50% on PAK7 (read-out: % Competition).
`Fc1ccc(-c2c(-c3ccncc3)[nH]c3nccnc23)cc1` [RO1155697-000-005]: the “Percent Competition” value in experiment [1] (JAK1(JH2domain-pseudokinase), compound concentration 10 uM) stood at 99%; on EGFR(G719S) (compound concentration 10 uM), 96%. Moreover, the inhibition at 10 µM on PRKD1 (PRKD1, compound concentration 10 uM, read-out: Percent Competition) was found to be 92%; on PRKD3 (PRKD3, compound concentration 10 uM, read-out: Percent Competition), 98%; on CSNK1E (CSNK1E, compound concentration 10 uM, read-out: Percent Competition), 100%; at MAP4K4 (MAP4K4, compound concentration 10 uM, read-out: Percent Competition) it was 84%; on PAK7 (PAK7, compound concentration 10 uM, read-out: Percent Competition) it was 86%.

(Values after publication PMC3445516 (PLoS ONE, 2012).)
